Reference: patent publication US7049321B2, “Methods and pharmaceutical compositions for treatment of central and peripheral nervous system disorders and compounds useful therefor” (Israel Institute for Biological Research, priority 2002, dated 2006)
“Also recorded” adds a separate entry of the source.

Columns and labels:
[1] = molecular target: T1, human M1 (Homo sapiens, UniProt P11229); assay: PI hydrolysis in cells transfected with human M1; type: cell-based; design: expressed in transfected cells
T1 sequence (P11229 1-460): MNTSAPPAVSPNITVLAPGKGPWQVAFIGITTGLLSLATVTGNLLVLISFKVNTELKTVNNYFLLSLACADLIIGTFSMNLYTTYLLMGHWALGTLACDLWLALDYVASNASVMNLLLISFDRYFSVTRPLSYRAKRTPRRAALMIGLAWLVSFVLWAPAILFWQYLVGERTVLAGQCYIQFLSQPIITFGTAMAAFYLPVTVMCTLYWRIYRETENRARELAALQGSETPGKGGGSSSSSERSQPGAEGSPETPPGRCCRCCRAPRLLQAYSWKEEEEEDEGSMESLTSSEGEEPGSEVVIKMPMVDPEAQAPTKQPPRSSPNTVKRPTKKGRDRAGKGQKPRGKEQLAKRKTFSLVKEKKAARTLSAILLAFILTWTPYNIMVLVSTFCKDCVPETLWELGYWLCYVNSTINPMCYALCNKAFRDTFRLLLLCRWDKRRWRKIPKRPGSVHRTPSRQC

[2] = test system: trihexyphenidyl rats; assay: Passive avoidance in trihexyphenidyl-treated rats; type: in vivo, Wistar rats; settings: 0.03 mg/kg, po, 72 hrs delay; DDW 93.1±29.0
[3] = Metabolic stability, human liver microsomes; type: in vitro ADME; settings: read-out: Metabolic Stability T1/2
Experimental: (§1) The metabolic stability of AF292 was evaluated by monitoring its disappearance while incubated with rat, […], monkey, and human hepatic microsomes. Testosterone, and propranolol were run as assay controls.

[4] = molecular target: CYP3A4 (Homo sapiens, UniProt P08684); assay: Cytochrome P450 inhibition, CYP3A4; type: in vitro ADME; settings: up to 10 μM
Experimental: (§2) Cytochrome P450 activity can be an indicator for potential drug-drug interactions. AF292 was evaluated in a microtiter plate assay for P450 inhibition.

[5] = test system: Human α-glycoprotein (AGP); assay: Protein binding, human α-glycoprotein; type: in vitro ADME; settings: 10 μM
Experimental: Protein binding studies were carried out in human plasma, α1-glycoprotein, human serum albumin (HSA), and Dulbecco's Phosphate Buffered Saline (PBS). AF292 was added to a final concentration of 10 μM. […] (μM) and in human […] (AGP), (see Table 1).

[6] = Metabolic stability, rat liver microsomes; type: in vitro ADME; settings: read-out: Metabolic Stability T1/2
Experimental: as §1

[7] = molecular target: T2, M3 mAChR (Homo sapiens, UniProt P20309); assay: Arachidonic acid (AA) release, M3; type: cell-based
T2 construct: expressed in transfected cells

[8] = molecular target: CYP2C19 (Homo sapiens, UniProt P33261); assay: Cytochrome P450 inhibition, CYP2C19; type: in vitro ADME; settings: up to 10 μM
Experimental: as §2

[9] = Plasma levels of AF267B and AF292 in dogs after AF267B administration (toxicokinetic, LC-MS); type: in vivo, Beagle dogs; settings: for AUC(0-t) / Cmax / Tmax / half-life / AUC(0-inf) / MRT / MRT at 13 weeks: beagle, plasma, po
Text: Internal Standard (AF261): 2-Methyl-8-methyl-1-thia-4,8-diaza-spiro[4.5]decan-3-one; MW 200. The analytical plasma samples originate from the in-life part of this study.

[10] = test system: tau proteins; assay: tau phosphorylation, AT8 immunoblot; type: cell-based; settings: 100 μM; to the control level
Text: Following the experimental design of Sadot et al., J. Neurochem. […] By linking an M1 agonist to an antioxidant moiety tau phophorylation may be decreased, providing a new therapeutic strategy in a variety of CNS disease states due to combined damage due to oxidative stress and tau hyperphosphorylation.

[11] = molecular target: CYP2C9 (Homo sapiens, UniProt P11712); assay: Cytochrome P450 inhibition, CYP2C9; type: in vitro ADME; settings: up to 10 μM
Experimental: as §2

[12] = Metabolic stability, monkey liver microsomes; type: in vitro ADME; settings: read-out: Metabolic Stability T1/2
Experimental: as §1

[13] = test system: cortical and hippocampal cell culture; assay: Protection against NMDA-induced cell death; type: cell-based, rat; settings: for Neuroprotective potency against 200 μM of NMDA vs MK801: 100 μM agonist
[14] = test system: cells transfected with M1 mAChR; assay: Apoptosis (DAPI, TUNEL, FACS) after starvation, Aβ or H2O2; type: cell-based, rat; settings: for Apoptotic cell death induced by starvation: 24 hrs starvation; for H2O2-induced apoptosis: H2O2 25 and 50 μm; for Aβ-induced apoptosis: β-A25-35 or β-A1-42 (25 μM), M1 transfected cells; for Apoptotic population after β-amyloid (FACS): β-Amyloid 25–35 or 1–42
Experimental: Several experiments were performed in serum-free medium.
Cells were grown and treated on glass coverslips.
Apoptotic cells were identified as the pre-G1 phase.

[15] = mouse, in vivo
Experimental: This calculation was based on the brain weight (2 gr) vs. total plasma volume (14 ml).

[16] = test system: adrenergic, benzodiazepine, dopamine, GABA, glutamate, glycine, histamine, nicotinic, serotonin sites, ChAT, GAD, MAO-A, MAO-B; assay: Binding panel of other receptors and enzymes (AF267B)
[17] = test system: Primary mixed rat cortical neurons infected with recombinant Semliki Forest virus encoding human APP695 or APP C99 or C111; assay: Aβ levels in vitro in infected cortical neurons; type: cell-based
Experimental: The mechanism of Aβ modulation was tested using C99 (and C111) that are truncated constructs generated from APP. Unlike APP, C99/C111 are direct substrates for γ-secretase. With both constructs it is possible to directly assay for γ-secretase activity, while with APP this is not possible. Both constructs are—as compared to APP—inefficient substrates for α-secretase. Synergistc effects were also evaluated with CDX (methyl-β-cyclodextrin), an agent which extracts cholesterol from the plasma membrane. CDX inhibits also Aβ production. CDX-treated cells were treated in addition to the respective muscarinic agonist for 5 min to reduce the cholesterol content.

[18] = test system: cyclin D1; assay: Cyclin D1 expression in rat hippocampal neurons; type: cell-based; settings: against Aβ (5 μM)-induced decrease
Experimental: (§3) This study was performed in rat hippocampal primary cell cultures using the methods described by Garrido J L et al. (FASEB J 2002; 16:1982).

[19] = test system: cholesterol-fed rabbits; assay: Aβ immunoreactivity in cortex of hypercholesterolemic rabbits; type: in vivo, New Zealand white rabbits; settings: 1 mg/kg, s.c., 10 weeks
Text: New Zealand white male rabbits were allowed food and water ad libitum. Animals were fed either standard chow or chow supplemented with 2% cholesterol by weight (Purina) for 10 weeks. […] Following 10 weeks of treatment animals were sacrificed and evaluated for Aβ immunohistochemistry, when all sections were stained simultaneously.

[20] = test system: rat hippocampal neurons; assay: Survival, morphology and apoptosis of hippocampal neurons exposed to Aβ; type: cell-based
Experimental: as §3

[21] = both sexes, dog, 6 mg/kg, read-out: plasma half life
[22] = female, dog, 6 mg/kg, F (1x), AF267B 1.5, 3, 6 mg/kg p.o. single
[23] = female, dog, 6 mg/kg, F(13w), AF267B 1.5, 3, 6 mg/kg p.o.
[24] = male, dog, 6 mg/kg, M (1x), AF267B 1.5, 3, 6 mg/kg p.o. single
[25] = male, dog, 6 mg/kg, M(13w), AF267B 1.5, 3, 6 mg/kg p.o.
[26] = male, dog, read-out: Elimination half life, Mean T1/2

T2 sequence (P20309 whole entry): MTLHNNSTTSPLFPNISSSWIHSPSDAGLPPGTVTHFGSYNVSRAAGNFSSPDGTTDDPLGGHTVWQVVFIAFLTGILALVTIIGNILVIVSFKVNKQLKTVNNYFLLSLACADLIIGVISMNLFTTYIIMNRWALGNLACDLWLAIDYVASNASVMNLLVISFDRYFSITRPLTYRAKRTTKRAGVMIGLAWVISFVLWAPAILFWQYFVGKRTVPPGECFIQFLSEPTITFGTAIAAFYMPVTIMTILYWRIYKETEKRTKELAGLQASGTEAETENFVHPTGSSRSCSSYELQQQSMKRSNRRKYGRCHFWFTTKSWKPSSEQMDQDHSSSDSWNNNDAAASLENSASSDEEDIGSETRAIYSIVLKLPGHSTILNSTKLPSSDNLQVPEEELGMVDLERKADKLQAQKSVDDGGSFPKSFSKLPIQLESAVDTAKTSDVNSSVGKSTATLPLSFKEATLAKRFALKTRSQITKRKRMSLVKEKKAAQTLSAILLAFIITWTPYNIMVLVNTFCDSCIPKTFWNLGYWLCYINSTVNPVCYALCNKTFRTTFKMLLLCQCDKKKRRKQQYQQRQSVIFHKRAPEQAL
Chain of CYP2C9 (P11712 whole entry): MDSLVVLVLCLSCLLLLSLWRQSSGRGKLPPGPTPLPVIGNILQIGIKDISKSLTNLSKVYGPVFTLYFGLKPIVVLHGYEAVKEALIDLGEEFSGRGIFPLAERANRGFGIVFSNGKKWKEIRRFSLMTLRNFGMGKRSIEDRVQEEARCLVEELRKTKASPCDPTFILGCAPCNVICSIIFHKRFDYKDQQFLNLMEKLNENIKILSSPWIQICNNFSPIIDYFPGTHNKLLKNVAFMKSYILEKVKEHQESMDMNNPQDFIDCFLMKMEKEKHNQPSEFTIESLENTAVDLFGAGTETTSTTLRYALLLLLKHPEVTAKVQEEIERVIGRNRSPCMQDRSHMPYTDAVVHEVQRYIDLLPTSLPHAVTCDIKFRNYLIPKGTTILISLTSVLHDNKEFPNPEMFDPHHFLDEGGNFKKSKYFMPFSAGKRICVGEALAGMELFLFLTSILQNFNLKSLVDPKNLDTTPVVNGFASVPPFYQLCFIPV
Chain of CYP2C19 (P33261 whole entry): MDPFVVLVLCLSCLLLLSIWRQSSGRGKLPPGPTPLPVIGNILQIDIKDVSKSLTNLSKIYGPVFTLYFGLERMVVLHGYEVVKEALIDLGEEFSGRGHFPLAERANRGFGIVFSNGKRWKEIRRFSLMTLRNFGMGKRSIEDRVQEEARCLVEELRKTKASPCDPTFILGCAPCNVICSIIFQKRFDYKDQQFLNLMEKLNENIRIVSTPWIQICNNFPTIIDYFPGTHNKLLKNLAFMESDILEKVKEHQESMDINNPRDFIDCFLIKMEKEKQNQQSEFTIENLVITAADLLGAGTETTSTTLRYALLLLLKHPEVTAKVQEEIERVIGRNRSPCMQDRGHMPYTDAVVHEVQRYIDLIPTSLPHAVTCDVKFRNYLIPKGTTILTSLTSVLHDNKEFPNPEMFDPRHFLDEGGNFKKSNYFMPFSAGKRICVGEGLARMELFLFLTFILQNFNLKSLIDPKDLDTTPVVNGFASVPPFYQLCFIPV
Chain of CYP3A4 (P08684 whole entry): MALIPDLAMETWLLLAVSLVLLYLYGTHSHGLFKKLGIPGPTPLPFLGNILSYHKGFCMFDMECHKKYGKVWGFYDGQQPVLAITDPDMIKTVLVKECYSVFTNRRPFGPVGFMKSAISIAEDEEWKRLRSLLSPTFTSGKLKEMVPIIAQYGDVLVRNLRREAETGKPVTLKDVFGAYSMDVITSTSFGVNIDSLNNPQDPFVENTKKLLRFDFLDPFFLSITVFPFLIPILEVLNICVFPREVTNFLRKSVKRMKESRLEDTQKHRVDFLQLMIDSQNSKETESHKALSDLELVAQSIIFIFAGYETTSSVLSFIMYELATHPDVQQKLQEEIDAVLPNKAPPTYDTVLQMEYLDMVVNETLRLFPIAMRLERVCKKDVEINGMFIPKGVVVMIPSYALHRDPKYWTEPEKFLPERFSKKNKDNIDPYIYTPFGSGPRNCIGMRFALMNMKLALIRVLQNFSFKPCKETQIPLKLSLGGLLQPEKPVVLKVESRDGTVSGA

For CC[C@@H]1SC2(CCNCC2)NC1=O [AF292, (S)-2-Ethyl-1-thia-4,8-diaza-spiro[4.5]decan-3-one], the “PI turnover vs. carbachol, M1” value [1] was ~35%, the Retention latency [2] was 225.9 ± 36 s and the half-life [3] was > 1.67 h. The “Inhibition of CYP3A4” value [4] was “did not induce significant inhibition”, the “Protein Binding” value [5] was 0% and the half-life [6] was 1.53 h. For the same compound, the “AA release, M3 mAChR, agonist activity” value [7] was “inactive as an agonist; also recorded: PI., AA: M3 mAChR: Not active as agonist”, the “Inhibition of CYP2C19” value [8] was “did not induce significant inhibition” and the “Elimination half life, Mean T1/2” value ([9]; F) was “Mean T1/2 (F) = 10.6 +/− 7.6 h”. For the same compound, the AUC(0-t) ([9]; both sexes, dog) was 0.616 to 2.45 µg·h/mL, the Cmax ([9]; both sexes, dog) was 0.136 to 0.555 µg/mL and the Tmax ([9]; both sexes, dog) was 3 h. For the same compound, the half-life [9, 21] was 9 to 20 h, the “Cmax vs. the Cmax of AF267B” value ([9]; dog, in vivo) was 50–90% and the AUC(0-inf) [9, 22] was 3.9 to 4.84 µg·h/mL. For the same compound, the AUC(0-inf) [9, 23] was 1.87 to 12.7 µg·h/mL, the MRT ([9]; female, dog, F (1x)) was 8.7 to 18.7 h and the MRT at 13 weeks ([9]; female, dog, F(13w)) was 5.1 to 33.7 h. It also gave a half-life ([9]; female, dog, females, read-out: T1/2 (converted)) of 10.6 h, an AUC(0-inf) [9, 24] of 1.14 to 10.9 µg·h/mL and an AUC(0-inf) [9, 25] of 1.61 to 4.17 µg·h/mL. For the same compound, the MRT ([9]; male, dog, M (1x)) was 5 to 27.3 h, the MRT at 13 weeks ([9]; male, dog, M(13w)) was 5 to 7.8 h and the half-life [9, 26] was 6.3 h. For the same compound, the “tau phosphorylation (AT8)” value [10] was “induce dephosphorylation of tau proteins”, the “Inhibition of CYP2C9” value [11] was “did not induce significant inhibition” and the half-life [12] was 1.23 h.

For CC1=NCC2(CCN(C)CC2)S1 [AF150(S), 2,8-Dimethyl-1-thia-3,8-diaza-spiro[4.5]dec-2-ene], the “Prevention of NMDA-induced cell death” value [13] was “effective in prevention of cell death”, the “Neuroprotective potency against 200 μM of NMDA vs MK801” value [13] was “slightly less” and the “Apoptotic death during starvation (FACS)” value [14] was “protected cells from apoptotic death”. For the same compound, the “Apoptotic cell death induced by starvation” value [14] was “significantly protect”, the H2O2-induced apoptosis [14] was “prevented H2O2-induced apoptosis” and the Aβ-induced apoptosis [14] was “prevented”. The “Apoptotic population after β-amyloid (FACS)” value [14] was “reduced the apoptotic population significantly”.

In the case of CC[C@@H]1SC2(CCN(C)CC2)NC1=O [AF267B, (S)-2-ethyl-8-methyl-1-thia-4,8-diaza-spiro[4.5]decan-3-one], the “PI turnover vs. carbachol, M1” value [1] is reported as ~66%, the “Prevention of NMDA-induced cell death” value [13] is reported as “effective in prevention of cell death” and the “Neuroprotective potency against 200 μM of NMDA vs MK801” value [13] is reported as “slightly less”. For the same compound, the half-life [3] was > 1.67 h, the “time detected in the brain after dosing” value [15] was 2 to 240 min and the Binding to panel [16] was “no binding at all”. The “Active concentration range, decrease of Aβ” value [17] was “active in the μM range”, the “Potency in decreasing Aβ levels relative to AF150(S)” value [17] was “at least 5 fold” and the “Reduction of release of Aβ-like fragments (3–4 Kda)” value [17] was “approximately 50%”. For the same compound, the “γ secretase activity reduction” value [17] was 50%, the p3 fragment ([17]; 1 mM) was “complete loss” and the “Decrease of Aβ together with CDX” value ([17]; with CDX (5 mM), to undetectable Aβ levels) was “synergistic effect”. For the same compound, the “Protein Binding” value [5] was “AGP = 5.7%”, the half-life [6] was 1.47 h and the “cyclin D1, increase vs. control” value [18] was 50%. For the same compound, the “Reduction of intensity of the immunoreactivity” value [19] was “approximately 50%”, the “Reduction of number of neurons expressing Aβ immunoreactivity” value [19] was 25–30% and the “Apoptotic death during starvation (FACS)” value [14] was “protected cells from apoptotic death”. For the same compound, the “Apoptotic cell death induced by starvation” value [14] was “significantly protect”, the H2O2-induced apoptosis [14] was “prevented H2O2-induced apoptosis” and the Aβ-induced apoptosis [14] was “prevented”. The “Apoptotic population after β-amyloid (FACS)” value [14] was “reduced the apoptotic population significantly”, the “Protection of hippocampal neurons from Aβ1–40” value ([20]; 10 μM, Aβ1–40 (5 μM)) was > 90% and the “Aβ1–40-induced apotosis” value ([20]; 10 μM, Aβ1–40 (5 μm)) was “to the control level”. The “Survival and morphology of hippocampal neurons, compound alone” value ([20]; 0.5–50 μM) was “does not affect the survival and morphology”, the “Neurites after Aβ1–40 (immunofluorescence)” value ([20]; Aβ1–40 (5 μM)) was “protected the neurons” and the AUC(0-t) ([9]; both sexes, dog) was 0.712 to 3.95 µg·h/mL. For the same compound, the Cmax ([9]; both sexes, dog) was 0.162 to 1.35 µg/mL, the Tmax ([9]; both sexes, dog) was 1.5 to 3 h and the half-life [9, 21] was 1 to 2 h. The AUC(0-inf) [9, 22] was 0.985 to 3.18 µg·h/mL, the AUC(0-inf) [9, 23] was 1.03 to 4.16 µg·h/mL and the MRT ([9]; female, dog, F (1x)) was 4.7 to 5.3 h. The MRT at 13 weeks ([9]; female, dog, F(13w)) was 3.6 to 5.2 h, the half-life ([9]; female, dog, read-out: Elimination half life, Mean T1/2) was 3.3 h and the AUC(0-inf) [9, 24] was 0.8 to 3.69 µg·h/mL. For the same compound, the AUC(0-inf) [9, 25] was 1.04 to 4.47 µg·h/mL, the MRT ([9]; male, dog, M (1x)) was 3.8 to 5 h and the MRT at 13 weeks ([9]; male, dog, M(13w)) was 3 to 4.2 h. For the same compound, the half-life [9, 26] was 2.1 h, the “tau phosphorylation (AT8)” value [10] was “induce dephosphorylation of tau proteins” and the half-life [12] was 0.45 h.
